Several values for one entry are separate records, joined by “and”; a condition that tells them apart may be missing. Equal values may be shown once.
Key:
Format in all cases: cell-based, human
[1] = system: Donor 1 GMA Expanded T-Cell Lines (222-AG11, 222-AG12, 222-BA11, 222-BC11); assay: ATP proliferation assay (CellTiter Glo), Donor 1 GMA expanded T-cell lines, incl. reactivity to non-canonical GA peptides; conditions: for Proliferation (luminescent ATP assay), Mean: T-cell line 222-AG12, autologous B-LCL
Description: Proliferation was evaluated by measuring ATP content using a luminescent method (CellTiter Glo Luminescent Cell Viability Assay, Promega, Madison, Wis., cat. #G7571) or by measuring BrdU uptake by ELISA (Millipore cat. #2752), in both cases following kit instructions. A split well format was used. Cells in each well were resuspended and 65 μl transferred to the wells of each of two new U-bottom 96-well plates, to generate the replicate plates. For the initial screening, the original 96-well plate received mitomycin-treated autologous PBMC as APC plus 10 μg/mL antigen (GA). A first replicate plate received 100 μl., mitomycin-treated PBMC alone (2×10^5), and no antigen, and a second replicate plate received 100 μL mitomycin-treated PBMC plus GA at a final concentration of 10 μg/mL. Therefore, all three plates received autologous APC (PBMC) treated with mitomycin C to prevent cell division. […] The latter two plates were incubated for 3 days at 37° C., 6% CO2 before adding CellTiter Glo or BrdU and measuring signal. IL-2 was added at 10 U/mL to the original 96-well plate for expansion on Day 17. For subsequent screenings, mitomycin-treated EBV-transformed autologous B-LCL (2×10^5 to 5×10^5 cells/mL) were used as APC.
On Day 24, cells from the wells corresponding to the eight presumptive GA-specific human T-cell lines listed in Table 4 were transferred to a 24-well plate and expanded by stimulating with 10 μg/mL GMA and mitomycin-treated autologous PBMC as APC (3×10^6 per well, i.e., 1.5×10^6/mL). On Day 32 four of the eight lines, 222-BA11, 222-BC11, 222-AG11, and 222-AG12, were stimulated with 0, 1, 10 and 100 μg/mL GMA and tested in a 96-well plate for a proliferative response to GMA using an ATP assay, again using autologous PBMC as APC (2×10^5 per well, i.e., 1×10^6/mL). […] FIGS. 2A and B show the results of the ATP proliferation assay carried out using 222-AG12, 222-BC11, 222-AG11, and 222-BA11 at Day 35 (control=no antigen). FIGS. 3A-C compare the results of ATP proliferation assays carried out after stimulation with varying concentrations of GMA or Copaxone as indicated, using cell lines 222-BA11, 222-BC11, and 222-AG12.
Donor 1 GMA T-cell line 222-AG12 was assayed for proliferation following stimulation with 0, 1, 10, and 30 μg/mL each of peptides GLT 631, GAT 631, GAT 111, LT 11, GT 11, GL 14, COP, and GMA, at a T-cell concentration of 2×10^5 cells/mL, in the presence of mitomycin C-treated autologous B-LCL. Line 222-AG12 was assayed after 3 rounds of restimulation (4 total stimulations). Proliferation was measured by luminescent ATP assay.

Donor 3 GMA T-Cell Lines = assay: ATP proliferation assay (CellTiter Glo), Donor 3 GMA T-cell lines, incl. reactivity to non-canonical GA peptides; conditions: for Non-Canonical Peptide Non-Reactivity: proliferation <2 times no antigen control
Donor 4 COP T-Cell Lines = assay: ATP proliferation assay (CellTiter Glo), Donor 4 COP T-cell lines, incl. reactivity to non-canonical GA peptides; conditions: for Non-Canonical Peptide Non-Reactivity: proliferation <2 times no antigen control; for Proliferation (luminescent ATP assay), Mean: T-cell line 205-1F4, Day 71, autologous B-LCL

For poly (Glu-Ala-Tyr; 1:1:1) [GAT 111], the “Non-Canonical Peptide Non-Reactivity” value ([1]; 222-AG12, proliferation <2 times no antigen control) was “GAT 111”, the “Nonreactive T-Cell Line” value ([1]; Donor 1 GMA expanded lines, stimulation with the non-canonical GA peptide) was 222-AG12 (Donor 1) and the “Proliferation (luminescent ATP assay), Mean” value (“Proliferation” below) ([1]; 1 ug/mL antigen) was 3391 RLU. For the same substance, the “Proliferation” value ([1]; 10 ug/mL antigen) was 2568 RLU, the “Proliferation” value ([1]; 30 ug/mL antigen) was 2245 RLU and the “Non-Canonical Peptide Non-Reactivity” value (Donor 3 GMA T-Cell Lines; 165-B5G) was “GAT 111”. For the same substance, the “Non-Canonical Peptide Non-Reactivity” value (Donor 3 GMA T-Cell Lines; 165-C5G) was “GAT 111”, the “Non-Canonical Peptide Non-Reactivity” value (Donor 3 GMA T-Cell Lines; 165-E7G) was “GAT 111” and the “Non-Canonical Peptide Non-Reactivity” value (Donor 3 GMA T-Cell Lines; 165-E9G) was “GAT 111”. The “Non-Canonical Peptide Non-Reactivity” value (Donor 3 GMA T-Cell Lines; 165-F5G) was “GAT 111”, the “Non-Canonical Peptide Non-Reactivity” value (Donor 3 GMA T-Cell Lines; 165-F10G) was “GAT 111” and the “Non-Canonical Peptide Non-Reactivity” value (Donor 3 GMA T-Cell Lines; 165-H11G) was “GAT 111”. For the same substance, the “Nonreactive T-Cell Line” value (Donor 3 GMA T-Cell Lines; Donor 3 GMA lines, stimulation with the non-canonical GA peptide) was 165-B5G (Donor 3) and 165-C5G (Donor 3) and 165-C8G (Donor 3) and 165-E7G (Donor 3) and 165-E9G (Donor 3) and 165-F5G (Donor 3) and 165-F10G (Donor 3) and 165-H11G (Donor 3), the “Proliferation” value (Donor 3 GMA T-Cell Lines; T-cell line 165-05G, 1 μg/mL antigen, Day 50 of culturing, No Antigen Value 2149) was 1778 RLU and the “Proliferation” value (Donor 3 GMA T-Cell Lines; T-cell line 165-05G, 3 μg/mL antigen, Day 50 of culturing, No Antigen Value 2149) was 1661 RLU. The “Proliferation” value (Donor 3 GMA T-Cell Lines; T-cell line 165-05G, 10 μg/mL antigen, Day 50 of culturing, No Antigen Value 2149) was 1569 RLU, the “Proliferation” value (Donor 3 GMA T-Cell Lines; T-cell line 165-05G, 30 μg/mL antigen, Day 50 of culturing, No Antigen Value 2149) was 1449 RLU and the “Proliferation” value (Donor 3 GMA T-Cell Lines; T-cell line 165-B5G, 1.25 μg/mL antigen, Day 55 of culturing, No Antigen Value 846) was 1005 RLU. The “Proliferation” value (Donor 3 GMA T-Cell Lines; T-cell line 165-B5G, 2.5 μg/mL antigen, Day 55 of culturing, No Antigen Value 846) was 886 RLU, the “Proliferation” value (Donor 3 GMA T-Cell Lines; T-cell line 165-B5G, 5 μg/mL antigen, Day 55 of culturing, No Antigen Value 846) was 947 RLU and the “Proliferation” value (Donor 3 GMA T-Cell Lines; T-cell line 165-B5G, 10 μg/mL antigen, Day 55 of culturing, No Antigen Value 846) was 931 RLU. For the same substance, the “Proliferation” value (Donor 3 GMA T-Cell Lines; T-cell line 165-C5G, 1.25 μg/mL antigen, autologous B-LCL) was 445 RLU, the “Proliferation” value (Donor 3 GMA T-Cell Lines; T-cell line 165-C5G, 2.5 μg/mL antigen, autologous B-LCL) was 406 RLU and the “Proliferation” value (Donor 3 GMA T-Cell Lines; T-cell line 165-C5G, 5 μg/mL antigen, autologous B-LCL) was 422 RLU. The “Proliferation” value (Donor 3 GMA T-Cell Lines; T-cell line 165-C5G, 10 μg/mL antigen, autologous B-LCL) was 430 RLU, the “Proliferation” value (Donor 3 GMA T-Cell Lines; T-cell line 165-E7G, 1.25 μg/mL antigen, autologous B-LCL, Day 55) was 1896 RLU and the “Proliferation” value (Donor 3 GMA T-Cell Lines; T-cell line 165-E7G, 2.5 μg/mL antigen, autologous B-LCL, Day 55) was 2001 RLU. For the same substance, the “Proliferation” value (Donor 3 GMA T-Cell Lines; T-cell line 165-E7G, 5 μg/mL antigen, autologous B-LCL, Day 55) was 1285 RLU, the “Proliferation” value (Donor 3 GMA T-Cell Lines; T-cell line 165-E7G, 10 μg/mL antigen, autologous B-LCL, Day 55) was 2176 RLU and the “Proliferation” value (Donor 3 GMA T-Cell Lines; T-cell line 165-E9G, 1 μg/mL antigen, Day 50 of culturing, No Antigen Value 1742) was 1528 RLU. The “Proliferation” value (Donor 3 GMA T-Cell Lines; T-cell line 165-E9G, 1.25 μg/mL antigen, autologous B-LCL) was 154 RLU, the “Proliferation” value (Donor 3 GMA T-Cell Lines; T-cell line 165-E9G, 2.5 μg/mL antigen, autologous B-LCL) was 240 RLU and the “Proliferation” value (Donor 3 GMA T-Cell Lines; T-cell line 165-E9G, 3 μg/mL antigen, Day 50 of culturing, No Antigen Value 1742) was 1454 RLU. The “Proliferation” value (Donor 3 GMA T-Cell Lines; T-cell line 165-E9G, 5 μg/mL antigen, autologous B-LCL) was 240 RLU, the “Proliferation” value (Donor 3 GMA T-Cell Lines; T-cell line 165-E9G, 10 μg/mL antigen, autologous B-LCL) was 153 RLU and the “Proliferation” value (Donor 3 GMA T-Cell Lines; T-cell line 165-E9G, 30 μg/mL antigen, Day 50 of culturing, No Antigen Value 1742) was 1301 RLU. The “Proliferation” value (Donor 3 GMA T-Cell Lines; T-cell line 165-E9G, 10 μpg/mL antigen, Day 50 of culturing, No Antigen Value 1742) was 1462 RLU, the “Proliferation” value (Donor 3 GMA T-Cell Lines; T-cell line 165-F5G, 1.25 μg/mL antigen, autologous B-LCL) was 139 RLU and the “Proliferation” value (Donor 3 GMA T-Cell Lines; T-cell line 165-F5G, 2.5 μg/mL antigen, autologous B-LCL) was 121 RLU. For the same substance, the “Proliferation” value (Donor 3 GMA T-Cell Lines; T-cell line 165-F5G, 5 μg/mL antigen, autologous B-LCL) was 142 RLU, the “Proliferation” value (Donor 3 GMA T-Cell Lines; T-cell line 165-F5G, 10 μg/mL antigen, autologous B-LCL) was 122 RLU and the “Proliferation” value (Donor 3 GMA T-Cell Lines; T-cell line 165-F10G, 1 μg/mL antigen, Day 50 of culturing, No Antigen Value 3752) was 3575 RLU. The “Proliferation” value (Donor 3 GMA T-Cell Lines; T-cell line 165-F10G, 1.25 μg/mL antigen, autologous B-LCL) was 929 RLU, the “Proliferation” value (Donor 3 GMA T-Cell Lines; T-cell line 165-F10G, 2.5 μg/mL antigen, autologous B-LCL) was 1342 RLU and the “Proliferation” value (Donor 3 GMA T-Cell Lines; T-cell line 165-F10G, 3 μg/mL antigen, Day 50 of culturing, No Antigen Value 3752) was 2989 RLU. For the same substance, the “Proliferation” value (Donor 3 GMA T-Cell Lines; T-cell line 165-F10G, 5 μg/mL antigen, autologous B-LCL) was 1091 RLU, the “Proliferation” value (Donor 3 GMA T-Cell Lines; T-cell line 165-F10G, 10 μg/mL antigen, Day 50 of culturing, No Antigen Value 3752) was 2876 RLU and the “Proliferation” value (Donor 3 GMA T-Cell Lines; T-cell line 165-F10G, 10 μg/mL antigen, autologous B-LCL) was 1054 RLU. The “Proliferation” value (Donor 3 GMA T-Cell Lines; T-cell line 165-F10G, 30 μg/mL antigen, Day 50 of culturing, No Antigen Value 3752) was 2299 RLU, the “Proliferation” value (Donor 3 GMA T-Cell Lines; T-cell line 165-H11G, 1 μg/mL antigen, Day 50 of culturing, No Antigen Value 1485) was 2448 RLU and the “Proliferation” value (Donor 3 GMA T-Cell Lines; T-cell line 165-H11G, 1.25 μg/mL antigen, autologous B-LCL) was 49 RLU. The “Proliferation” value (Donor 3 GMA T-Cell Lines; T-cell line 165-H11G, 2.5 μg/mL antigen, autologous B-LCL) was 320 RLU, the “Proliferation” value (Donor 3 GMA T-Cell Lines; T-cell line 165-H11G, 3 μg/mL antigen, Day 50 of culturing, No Antigen Value 1485) was 2294 RLU and the “Proliferation” value (Donor 3 GMA T-Cell Lines; T-cell line 165-H11G, 5 μg/mL antigen, autologous B-LCL) was 304 RLU. For the same substance, the “Proliferation” value (Donor 3 GMA T-Cell Lines; T-cell line 165-H11G, 10 μg/mL antigen, Day 50 of culturing, No Antigen Value 1485) was 2102 RLU, the “Proliferation” value (Donor 3 GMA T-Cell Lines; T-cell line 165-H11G, 10 μg/mL antigen, autologous B-LCL) was 336 RLU and the “Proliferation” value (Donor 3 GMA T-Cell Lines; T-cell line 165-H11G, 30 μg/mL antigen, Day 50 of culturing, No Antigen Value 1485) was 1599 RLU. The “Non-Canonical Peptide Non-Reactivity” value (Donor 4 COP T-Cell Lines; 205-1F4) was “GAT 111”, the “Non-Canonical Peptide Non-Reactivity” value (Donor 4 COP T-Cell Lines; 205-1H3) was “GAT 111” and the “reactivity to non-canonical GA peptides” value (Donor 4 COP T-Cell Lines; 205-1H7, after seven stimulations, 0, 1, 10, 30 μg/mL) was “not”. For the same substance, the “Non-Canonical Peptide Non-Reactivity” value (Donor 4 COP T-Cell Lines; 205-1H7) was “GAT 111”, the “Non-Canonical Peptide Non-Reactivity” value (Donor 4 COP T-Cell Lines; 205-1H11) was “GAT 111” and the “Nonreactive T-Cell Line” value (Donor 4 COP T-Cell Lines; Donor 4 COP lines, stimulation with the non-canonical GA peptide) was 205-1F4 (Donor 4) and 205-1H3 (Donor 4) and 205-1H7 (Donor 4) and 205-1H11 (Donor 4). The “Proliferation” value (Donor 4 COP T-Cell Lines; 1 μg/mL antigen) was 2002, the “Proliferation” value (Donor 4 COP T-Cell Lines; 3 μg/mL antigen) was 2163 and the “Proliferation” value (Donor 4 COP T-Cell Lines; 10 μg/mL antigen) was 2275.

— patent US9995734B2, “Human T cell line assay for evaluating the immunologic identity of glatiramer acetate preparations” (Mylan Inc., priority 2013, dated 2018)
